Test system: ER-alpha MCF7
Assay: ER-alpha MCF7 HCS EC50; stated as measured by in vitro cell proliferation assays of Examples 902 and 903
Format: cell-based
Conditions: Homo sapiens, MCF7, MCF7 cells; Table 2
From the text: The CellTiter-Glo® Luminescent Cell Viability Assay is a homogeneous method to determine the number of viable cells in culture based on quantitation of the ATP present, which signals the presence of metabolically active cells. The CellTiter-Glo® Assay is designed for use with multiwell plate formats, making it ideal for automated high-throughput screening (HTS), cell proliferation and cytotoxicity assays. The homogeneous assay procedure involves adding a single reagent (CellTiter-Glo® Reagent) directly to cells cultured in serum-supplemented medium. Cell washing, removal of medium or multiple pipetting steps are not required. The Cell Titer-Glo® Luminescent Cell Viability Assay, including reagents and protocol are commercially available (Promega Corp., Madison, WI, Technical Bulletin TB288).
The assay assesses the ability of compounds to enter cells and inhibit cell proliferation. The assay principle is based on the determination of the number of viable cells present by quantitating the ATP present in a homogenous assay where addition of the Cell Titer-Glo® reagent results in cell lysis and generation of a luminescent signal through the luciferase reaction. The luminescent signal is proportional to the amount of ATP present.
Cell Culture Medium: RPMI or DMEM high glucose, 10% Fetal Bovine Serum, 2 mM L-Glutamine, P/S. Incubate O/N (overnight) at 37° C., 5% CO2.
Day 2—Add Drug to Cells, Compound Dilution, DMSO Plates (serial 1:2 for 9 points). Add 20 μl of compound at 10 mM in the 2nd column of 96 well plate. […] Add 147 μl of Media into all wells. Transfer 3 μl of DMSO+ compound from each well in the DMSO Plate to each corresponding well on Media Plate using Rapidplate® (Caliper, a Perkin-Elmer Co.). For 2 drug combination studies, transfer one drug 1.5 μl of DMSO+ compound from each well in the DMSO Plate to each corresponding well on Media Plate using Rapidplate. Then, transfer another drug 1.5 μl to the medium plate.
Drug Addition to Cells, Cell Plate (1:10 dilution): Add 6 μl of media+ compound directly to cells (54 μl of media on the cells already). Incubate 3 days at 37° C., 5% CO2 in an incubator that will not be opened often.
Day 5—Develop Plates, Thaw Cell Titer Glo Buffer at room temperature: Remove Cell Plates from 37° C. and equilibrate to room temperature for about 30 minutes. Add Cell Titer-Glo® Buffer to Cell Titer-Glo® Substrate (bottle to bottle). Add 30 μl Cell Titer-Glo® Reagent (Promega cat. #G7572) to each well of cells. Place on plate shaker for about 30 minutes. Read luminescence on Analyst HT Plate Reader (half second per well).
Cell viability assays and combination assays: Cells were seeded at 1000-2000 cells/well in 384-well plates for 16 h. On day two, nine serial 1:2 compound dilutions were made in DMSO in a 96 well plate. The compounds were further diluted into growth media using a Rapidplate® robot (Zymark Corp., Hopkinton, MA). The diluted compounds were then added to quadruplicate wells in 384-well cell plates and incubated at 37° C. and 5% CO2. After 4 days, relative numbers of viable cells were measured by luminescence using Cell Titer-Glo® (Promega) according to the manufacturer's instructions and read on a Wallac Multilabel Reader® (PerkinElmer, Foster City). EC50 values were calculated using Prism® 4.0 software (GraphPad, San Diego).
5 ul of each individual compound concentration and each control compound was transferred to the cell plate. Fulvestrant was added to control wells at a final concentration of 100 nM). DMSO was added to negative control wells (0.2% v/v).

| EC50 [nM] | Compound |
| --- | --- |
| 0.096 | C[C@@H]1Cc2c([nH]c3ccccc23)[C@@H](c2c(F)cc(NC3CN(CCCF)C3)cc2F)N1CC(C)(C)F [Example 145, N-(3,5-difluoro-4-((1R,3R)-2-(2-fluoro-2-methylpropyl)-3-methyl-2,3,4,9-tetrahydro-1H-pyrido[3,4-b]indol-1-yl)phenyl)-1-(3-fluoropropyl)azetidin-3-amine] |
| 10 | C[C@@H]1Cc2c([nH]c3ccccc23)[C@@H](c2c(F)cc(OCCN3CC(CF)C3)cc2F)N1CC1CC(F)(F)C1 [Example 146, (1R,3R)-2-[(3,3-difluorocyclobutyl)methyl]-1-[2,6-difluoro-4-[2-[3-(fluoromethyl)azetidin-1-yl]ethoxy]phenyl]-3-methyl-1,3,4,9-tetrahydropyrido[3,4-b]indole] |
| 0.698 | C[C@@H]1Cc2c([nH]c3ccccc23)[C@@H](c2c(F)cc(OCCN3CC(CF)C3)cc2F)N1CC(C)(C)C [Example 147, (1R,3R)-1-[2,6-difluoro-4-[2-[3-(fluoromethyl)azetidin-1-yl]ethoxy]phenyl]-2-(2,2-dimethylpropyl)-3-methyl-1,3,4,9-tetrahydropyrido[3,4-b]indole] |
| 1.47 | C[C@@H]1Cc2c([nH]c3ccccc23)[C@@H](c2c(F)cc(OCCN3CC(CF)C3)cc2F)N1C(=O)C1CCC1 [Example 148, cyclobutyl-[(1R,3R)-1-[2,6-difluoro-4-[2-[3-(fluoromethyl)azetidin-1-yl]ethoxy]phenyl]-3-methyl-1,3,4,9-tetrahydropyrido[3,4-b]indol-2-yl]methanone] |
| 2.16 | C[C@@H]1Cc2c([nH]c3ccccc23)[C@@H](c2c(F)cc(OCCN3CC(CF)C3)cc2F)N1C(=O)C1CCCC1 [Example 149, cyclopentyl-[(1R,3R)-1-[2,6-difluoro-4-[2-[3-(fluoromethyl)azetidin-1-yl]ethoxy]phenyl]-3-methyl-1,3,4,9-tetrahydropyrido[3,4-b]indol-2-yl]methanone] |
| 0.483 | C[C@H]1CCN(CCOc2cc(F)c([C@@H]3c4[nH]c5ccccc5c4C[C@@H](C)N3CC(C)(C)F)c(F)c2)C1 [Example 150, (1R,3R)-1-[2,6-difluoro-4-[2-[(3S)-3-methylpyrrolidin-1-yl]ethoxy]phenyl]-2-(2-fluoro-2-methyl-propyl)-3-methyl-1,3,4,9-tetrahydropyrido[3,4-b]indole] |
| 0.156 | C[C@H](COc1cc(F)c([C@@H]2c3[nH]c4ccccc4c3C[C@@H](C)N2CC(C)(C)F)c(F)c1)N1CCCC1 [Example 151, (1R,3R)-1-[2,6-difluoro-4-[(2R)-2-pyrrolidin-1-ylpropoxy]phenyl]-2-(2-fluoro-2-methyl-propyl)-3-methyl-1,3,4,9-tetrahydropyrido[3,4-b]indole] |
| 0.362 | CCCN1CC(COc2cc(F)c([C@@H]3c4[nH]c5ccccc5c4C[C@@H](C)N3CC(C)(C)F)c(F)c2)C1 [Example 152, (1R,3R)-1-[2,6-difluoro-4-[(1-propylazetidin-3-yl)methoxy]phenyl]-2-(2-fluoro-2-methyl-propyl)-3-methyl-1,3,4,9-tetrahydropyrido[3,4-b]indole] |
| 0.221 | C[C@@H]1Cc2c([nH]c3ccccc23)[C@@H](c2c(F)cc(OCCN3CC(CF)C3)cc2F)N1CC1(F)CCC1 [Example 153, (1R,3R)-1-[2,6-difluoro-4-[2-[3-(fluoromethyl)azetidin-1-yl]ethoxy]phenyl]-2-[(1-fluorocyclobutyl)methyl]-3-methyl-1,3,4,9-tetrahydropyrido[3,4-b]indole] |
| 0.0333 | C[C@@H]1Cc2c([nH]c3ccccc23)[C@@H](c2c(F)cc(OCCN3CC(CF)C3)cc2F)N1C[C@](C)(F)CO [Example 154, (S)-3-((1R,3R)-1-(2,6-difluoro-4-(2-(3-(fluoromethyl)azetidin-1-yl)ethoxy)phenyl)-3-methyl-3,4-dihydro-1H-pyrido[3,4-b]indol-2(9H)-yl)-2-fluoro-2-methylpropan-1-ol] |
| 0.0799 | C[C@@H]1Cc2c([nH]c3ccccc23)[C@@H](c2c(F)cc(OCCN3CC(CF)C3)cc2F)N1C[C@@](C)(F)CO [Example 155, (2R)-3-[(1R,3R)-1-[2,6-difluoro-4-[2-[3-(fluoromethyl)azetidin-1-yl]ethoxy]phenyl]-3-methyl-1,3,4,9-tetrahydropyrido[3,4-b]indol-2-yl]-2-fluoro-2-methyl-propan-1-ol] |
| 0.335 | C[C@@H]1Cc2c([nH]c3ccccc23)[C@@H](c2ccc(OCCN3CC(CF)C3)cc2)N1CC(C)(C)F [Example 156, (1R,3R)-1-[4-[2-[3-(fluoromethyl)azetidin-1-yl]ethoxy]phenyl]-2-(2-fluoro-2-methyl-propyl)-3-methyl-1,3,4,9-tetrahydropyrido[3,4-b]indole] |
| 5 | C[C@@H]1Cc2c([nH]c3ccccc23)[C@@H](c2c(F)cc(OCCN3CC(CF)C3)cc2F)N1C(=O)CC1CC1 [Example 157, 2-cyclopropyl-1-[(1R,3R)-1-[2,6-difluoro-4-[2-[3-(fluoromethyl)azetidin-1-yl]ethoxy]phenyl]-3-methyl-1,3,4,9-tetrahydropyrido[3,4-b]indol-2-yl]ethanone] |
| 10 | C[C@@H]1Cc2c([nH]c3ccccc23)[C@@H](c2c(F)cc(OCCN3CC(CF)C3)cc2F)N1C(=O)CC1CCC1 [Example 158, 2-cyclobutyl-1-[(1R,3R)-1-[2,6-difluoro-4-[2-[3-(fluoromethyl)azetidin-1-yl]ethoxy]phenyl]-3-methyl-1,3,4,9-tetrahydropyrido[3,4-b]indol-2-yl]ethanone] |
| 0.285 | C[C@@H]1Cc2c([nH]c3ccccc23)[C@@H](c2c(F)cc(OCCN3CC(C)(CF)C3)cc2F)N1CC(C)(C)F [Example 160, (1R,3R)-1-[2,6-difluoro-4-[2-[3-(fluoromethyl)-3-methyl-azetidin-1-yl]ethoxy]phenyl]-2-(2-fluoro-2-methyl-propyl)-3-methyl-1,3,4,9-tetrahydropyrido[3,4-b]indole] |
| 0.0413 | C[C@@H]1Cc2c([nH]c3ccccc23)[C@@H](c2c(F)cc(OC3CN(C)C3)cc2F)N1CC(C)(C)F [Example 161, (1R,3R)-1-[2,6-difluoro-4-(1-methylazetidin-3-yl)oxy-phenyl]-2-(2-fluoro-2-methyl-propyl)-3-methyl-1,3,4,9-tetrahydropyrido[3,4-b]indole] |
| 0.0528 | CCN1CC(Oc2cc(F)c([C@@H]3c4[nH]c5ccccc5c4C[C@@H](C)N3CC(C)(C)F)c(F)c2)C1 [Example 162, (1R,3R)-1-[4-(1-ethylazetidin-3-yl)oxy-2,6-difluoro-phenyl]-2-(2-fluoro-2-methyl-propyl)-3-methyl-1,3,4,9-tetrahydropyrido[3,4-b]indole] |
| 0.457 | CCCCCN1CC(Oc2cc(F)c([C@@H]3c4[nH]c5ccccc5c4C[C@@H](C)N3CC(C)(C)F)c(F)c2)C1 [Example 163, (1R,3R)-1-[2,6-difluoro-4-(1-pentylazetidin-3-yl)oxy-phenyl]-2-(2-fluoro-2-methyl-propyl)-3-methyl-1,3,4,9-tetrahydropyrido[3,4-b]indole] |
| 0.216 | C[C@@H]1Cc2c([nH]c3ccccc23)[C@@H](c2c(F)cc(OC3CN(CC4CC4)C3)cc2F)N1CC(C)(C)F [Example 164, (1R,3R)-1-[4-[1-(cyclopropylmethyl)azetidin-3-yl]oxy-2,6-difluoro-phenyl]-2-(2-fluoro-2-methyl-propyl)-3-methyl-1,3,4,9-tetrahydropyrido[3,4-b]indole] |

Same assay, conditions: Homo sapiens; MCF7 cells; Table 2

| EC50 [nM] | Compound |
| --- | --- |
| 0.147 | C[C@@H]1Cc2c([nH]c3ccccc23)[C@@H](c2c(F)cc(OCCN3CC(CF)C3)cc2F)N1C(=O)C(C)(F)F [Example 159, 1-[(1R,3R)-1-[2,6-difluoro-4-[2-[3-(fluoromethyl)azetidin-1-yl]ethoxy]phenyl]-3-methyl-1,3,4,9-tetrahydropyrido[3,4-b]indol-2-yl]-2,2-difluoro-propan-1-one] |

— patent US20250114338A1, “TETRAHYDRO-PYRIDO[3,4-b]INDOLE ESTROGEN RECEPTOR MODULATORS AND USES THEREOF” (Genentech, Inc., priority 2014, published 2025)
